Consider one molecule from patent publication US20080227838A1, “Method for neuroprotection with glycoluril derivatives” (Cereprotec Incorporated, priority 2007, published 2008).

Molecules are shown by their SMILES. Some results are limits rather than exact numbers.

In data set [1] the test system is head trauma in mice. Briefly: Brain edema (tissue water content) after closed head injury in mice. The class given is in vivo. Here is the method:
(§1) The cerebroprotective effect of mebicar was assessed in a model of head trauma in mice (Beni-Adani et al., 2001). This type of trauma produces brain edema (i.e. increase in water content), breakdown of the blood brain barrier (BBB) and clinical dysfunction. The clinical status of the mice is evaluated 1 and 24 hours after injury along with measurement of the extent of cerebral edema. The neurological deficit, assessed by a set of criteria termed the Neurological Severity Score (NSS), is maximal at 1 hour after the initiation of head trauma. The NSS slowly decreases over time from the initiation of head trauma, with the gradual spontaneous recovery of the mice.
(i) Induction of closed head injury (CHI) in a mice model. Male Sabra mice (strain from Hebrew University of Jerusalem, Israel), weighing 35 to 45 g, were used. CHI was induced under ether anesthesia. A metal rod weighing 333 g was allowed to free fall from a prefixed height (at 3 cm for a mouse weighing 28-32 g) over the exposed skull covering the left hemisphere in the midcoronal plane. The tip of the rod is covered with silicone, and it delivers the impact to the head that is fixed on the bottom plane of the trauma device. Sham-operated mice were anesthetized, their skull exposed, but trauma was not induced. After CHI the mice were assigned to vehicle or mebicar treatment.
(iii) Evaluation of water content (brain edema). The extent of cerebral edema was evaluated by determining the tissue water content in the injured hemisphere, as previously described (Beni-Adani et al., 2001). Briefly, mice were sacrificed 24 h after injury, the time of peak edema formation, and brain cortical samples of ˜20 mg were cut from the left (traumatized) and right (contralateral) hemispheres, from the site bordering the lesion. The right (non-injured) hemisphere was used as an internal control. Samples were weighed before and after drying in a desiccated oven for 24 h at 95° C. After weighing the “dried” sections, the brain water content was calculated as % H2O=[(wet weight−dry weight)×100]/wet weight.
(iv) Evaluation of drug effect on brain edema. In order to evaluate the effect of a drug, and to do it in a “clinical-relevant” setting, the drug is given 1 h after the injury, immediately after the initial assessment of NSS. This protocol allows a homogenous distribution of the mice between the drug and vehicle treatments, and ensures similar severity of injury in both groups. NSS is then evaluated again at 24 h after injury, and ΔNSS is calculated. The mice are then sacrificed, their brain removed and cortical segments from the site of injury, and contralaterally, are taken for evaluation of edema, as described above in (iii). […]

In data set [2] the test system is head trauma in mice. Briefly: Clinical evaluation (Neurological Severity Score) after closed head injury in mice. It counts as in vivo. The settings on record: mebicar 750 mg/kg i.p., 5 mice out of 9, spontaneous recovery 2 out of 10 (20%). As to the method: as §1
(i) Induction of closed head injury (CHI) in a mice model. […]
(ii) Clinical evaluation of the mice after CHI. Mice were evaluated to define the severity of injury and functional recovery by using a set of clinical criteria. […]
For assessment of posttraumatic neurological impairment, a Neurological Severity Score (NSS) previously described, modified and validated, was used (Shapira et al. 1988; Chen et al. 1996; Beni-Adani et al. 2001). […] The ΔNSS, calculated as the difference between NSS at 1 h and the NSS at any later time-point, is a parameter which reflects the degree of spontaneous recovery following brain injury, as described (Chen et al., 1996; Yatsiv et al., 2002; Beni-Adani et al., 2001). […]

The conditions of data set [3]: in vivo; cited from earlier work.
The conditions of data set [4]: in vivo; cited from earlier work. The source holds these as a separate data set.
The subject of a further data set is stress and hypoxia. The note with it: 100-1000 mg/kg, cited from earlier work.
Data set [5] concerns neuroactive amino acids in the animal's brain. The note with it: cited from earlier work.
Another data set deals with experimental arrhythmias. The note with it: in vivo; cited from earlier work.
The test system of a further data set is shock. The settings on record: in vivo; cited from earlier work.
In the next data set the test system is myocardial contractility. The note with it: in vivo; cited from earlier work.

In the case of `CN1C(=O)N(C)C2C1N(C)C(=O)N2C` (centres unmarked) [mebicar, 2,4,6,8-tetramethyl-2,4,6,8-tetraazabicyclo[3.3.0]-octane-3,7-dione], the “Water content in the brain % (contralateral hemisphere)” value in the data set on head trauma in mice [1] (mice, closed head injury, mebicar 750 mg/kg intraperitoneally 1 h after injury, 24 h after injury, contralateral hemisphere, M ± SE) was 77.9 ± 0.27%. Further, in the data set with head trauma in mice [1] (mice, closed head injury, mebicar 750 mg/kg intraperitoneally 1 h after injury, 24 h after injury, traumatized area, M ± SE), the “Water content in the brain % (traumatized area)” value was determined as 80.7 ± 0.41%. Further, in the data set on head trauma in mice [1] (traumatized mice, mebicar 750 mg/kg i.p.), the “effect on water content of the contralateral hemisphere” value was “decreased water content up to normal parameters”. In addition, the “less water accumulated in the traumatized hemisphere of the brain” value with head trauma in mice [1] (traumatized mice, mebicar 750 mg/kg i.p., versus untreated traumatized mice) is “About 35%”. The “recovery in clinical function (share of mice)” value in the data set on head trauma in mice [2] is recorded as 55.5%. Besides, in data set [3], the metabolism entry was “not metabolized” and the “time to leave the organism” value is at most 24 h. Moreover, the toxicity entry in [4] is on record as “extremely low toxicity”. Also, the “effect on parameters of body function under extreme conditions” value in the data set with stress and hypoxia (stress and hypoxia) is given as “protective action”. In the data set on stress and hypoxia (tested animals), the “effect on muscle tone, movement coordination, working capacity” value is recorded as “without affecting the muscle tone, movement coordination or working capacity”. Moreover, in data set [5], the “change of balance of neuroactive amino acids in the brain” value was “raising the content of gamma-butyric acid”. In addition, the “effect in experimental arrhythmias” value with experimental arrhythmias is given as “protective action”. For the same molecule, the “effect in shock; acid-base and oxygen homeostasis” value in the data set with shock is listed as “antishock action”. Further, in the data set with myocardial contractility, the “effect on myocardial contractility” value is reported as “increase the myocardial contractility”.
